Measurements published in US20120101163A1, “COMPOSITION FOR INHIBITING CANCER METASTASIS” (TAIPEI MEDICAL UNIVERSITY, priority 2010, published 2012).

Experiments:
[1] = test system: matrix metalloproteinase-9; experiment: Gelatin gel zymography of PMA-induced HT 1080 cells, MMP-9 activity; type: cell-based, Human; conditions: HT 1080 cells, 0.4, 0.8, 1.2 and 1.6 mM, 24 hours
Experimental: (§1) 4. Gelatin Gel Zymography (Shim et al., 2003; Park et al., 2005; Hwang et al., 2006)
(§2) HT 1080 cells with appropriate cell numbers were cultured in 60 mm culturing plates for 12 hours, respectively. After the cells were attached onto the bottom of the plate and formed a monolayer, the medium in the plate was removed. Fresh serum free mediums with different concentrations of a test sample were added to the plates, respectively, and 100 nM PMA was added to each plate to induce the cells to express great quantities of matrix metalloproteinase-2 and matrix metalloproteinase-9, and the plates were placed in a temperature of 37° C. for 24 hours. After centrifugation, each cultured supernatant were saved and mixed with SDS-sample buffer under the same protein contents which were then injected into a 10% SDS-polyacrylamide gel (containing 1 mg/ml gelatin) and then electrophoresed. After the electrophoresis was completed, the gel was taken out and washed with 20 mM Tris-HCl containing 25% isopropanol three times; 10 minutes per time. Then the gel was equilibrated with 20 mM Tris-HCl for 30 minutes, and finally an incubate buffer (5 mM CaCl2 and 1 mM ZnCl2) was added to the gel and reacted with the gel overnight. Then the gel was stained with coomassie blue, and positions having matrix metalloproteinase activity of the gel presented a white color.

[2] = test system: matrix metalloproteinase-2; experiment: Gelatin gel zymography of PMA-induced HT 1080 cells, MMP-2 activity; type: cell-based, Human; conditions: HT 1080 cells, 0.4, 0.8, 1.2 and 1.6 mM, 24 hours
Experimental: as §1, §2

[3] = test system: human umbilical vein endothelial cells; experiment: Tube formation assay (angiogenesis); type: cell-based
Experimental: 13. Tube Formation Assay (Malinda et al., 1999)
1μ-Slide Angiogenesis ibiTreat chambers were coated with 10 μl Matrigel™ Mixtrix and placed in an incubator at 37° C. for 1 hour. 40 μl of a 3×10^5 cells/ml cell suspension was added to each chamber and left still for 20 minutes to let the cells attach to the chamber. After that, the medium in each chamber was removed. Fresh mediums with different concentrations of a test drug were added to the chambers, respectively and placed in an incubator at 37° C. After 18 hours, the angiogenesis appearance in each chamber was observed and photographed for recording.

[4] = test system: human umbilical vein endothelial cells; experiment: Cell viability assay of human umbilical vein endothelial cells; type: cell-based; conditions: 24 hours
Experimental: A medium in a culturing plate containing cells grown covering the whole bottom of the culturing plate, was removed. The cells were washed with 10 ml of PBS, and then suspended and mixed well with 10 ml of medium (a part of the cells need to be suspended with Trypsin-EDTA buffer). The numbers of the cells were calculated by a hemocytometer, and the cells were diluted to an appropriate cell concentration and added into the wells of a 24 well culturing plate by an amount of 500 μl/well. The 24 well culturing plates were placed in an incubator at 37° C. in a humidified atmosphere containing 5% CO2. After the cells were attached onto the bottom of the wells, the medium in each well was removed, and fresh mediums with different concentrations of a test drug were added into wells, respectively (if the cells were suspension cells, the fresh medium may be added into the wells, directly). Then, the 24 well culturing plates were placed in an incubator at 37° C. in a humidified atmosphere containing 5% CO2 for 24 hours. After that, an upper medium in each well was removed. The cells were washed with a PBS buffer twice, and then an MTT solution which was prepared with a medium was added to each well. After the 24 well culturing plates were placed in an incubator at 37° C. for reacting 4-6 hours, an upper medium in each well was removed, and 100 μl of DMSO was added to each well to solubilize the formazan precipitates. After that, an ELISA reader was used to determine the absorbance for each well at 600 nm.
After human umbilical vein endothelial cells were treated with the different concentrations of L-Aspartic acid β-hydroxamate (CH) and different concentrations of L-Glutamic acid γ-hydroxamate (DH) for 24 hours, respectively, the cell viability assays were performed to the treated human umbilical vein endothelial cells and the angiogenesis conditions of the human umbilical vein endothelial cells were recorded. The results of the cell viability assays are shown as FIGS. 13 (A) and 14 (A). Photographs for the human umbilical vein endothelial cells treated with L-Aspartic acid β-hydroxamate (CH) and human umbilical vein endothelial cells treated with L-Glutamic acid γ-hydroxamate (DH) are shown as FIGS. 13 (B) and 14 (B), respectively.

Row | SMILES | matrix metalloproteinase-9 inhibiting activity [1] | matrix metalloproteinase-2 inhibiting activity [2] | angiogenesis inhibition at 0.25 mM ([3]; 0.25 mM) | inhibition rate to angiogenesis ([3]; about 0.1-1.5 mM, stated as embodiment) | angiogenesis compared with the control group ([3]; increasing concentrations) | cytotoxicity to human umbilical vein endothelial cells ([4]; 0.25 mM) | viability of human umbilical vein endothelial cells ([4]; 0.75 mM)
1 | N[C@@H](CCC(=O)O)C(=O)O [D, L-Glutamic acid, reference compound] | no inhibiting effect | no inhibiting effect |  |  |  |  | 
2 | NC(CC(=O)NO)C(=O)O [CH, L-Aspartic acid β-hydroxamate] |  |  | already had an effect of inhibiting angiogenesis | 10-90% | significantly inhibited | no cytotoxicity | slight decreases
